From US12492188B2, “1H-benzo[D]imidazole derivatives as TLR9 inhibitors for the treatment of fibrosis” (BRISTOL-MYERS SQUIBB COMPANY, priority 2020, dated 2025)
Like-named read-outs stand apart in the source and are kept apart here.

Assays:
Format in all cases: cell-based
human TLR8 = target: T1, human TLR8 (Homo sapiens, UniProt Q9NR97); experiment: TLR8 inhibition reporter assay (HEK-Blue cells, secreted embryonic alkaline phosphatase reporter); conditions: HEK-Blue cells overexpressing human TLR8, stimulated with R848 15.9 μM; read-out: TLR 8 IC50
T1 construct: host or cells: HEK-Blue cells (HEK293-derived reporter line)
T1 sequence (Q9NR97 27-1041): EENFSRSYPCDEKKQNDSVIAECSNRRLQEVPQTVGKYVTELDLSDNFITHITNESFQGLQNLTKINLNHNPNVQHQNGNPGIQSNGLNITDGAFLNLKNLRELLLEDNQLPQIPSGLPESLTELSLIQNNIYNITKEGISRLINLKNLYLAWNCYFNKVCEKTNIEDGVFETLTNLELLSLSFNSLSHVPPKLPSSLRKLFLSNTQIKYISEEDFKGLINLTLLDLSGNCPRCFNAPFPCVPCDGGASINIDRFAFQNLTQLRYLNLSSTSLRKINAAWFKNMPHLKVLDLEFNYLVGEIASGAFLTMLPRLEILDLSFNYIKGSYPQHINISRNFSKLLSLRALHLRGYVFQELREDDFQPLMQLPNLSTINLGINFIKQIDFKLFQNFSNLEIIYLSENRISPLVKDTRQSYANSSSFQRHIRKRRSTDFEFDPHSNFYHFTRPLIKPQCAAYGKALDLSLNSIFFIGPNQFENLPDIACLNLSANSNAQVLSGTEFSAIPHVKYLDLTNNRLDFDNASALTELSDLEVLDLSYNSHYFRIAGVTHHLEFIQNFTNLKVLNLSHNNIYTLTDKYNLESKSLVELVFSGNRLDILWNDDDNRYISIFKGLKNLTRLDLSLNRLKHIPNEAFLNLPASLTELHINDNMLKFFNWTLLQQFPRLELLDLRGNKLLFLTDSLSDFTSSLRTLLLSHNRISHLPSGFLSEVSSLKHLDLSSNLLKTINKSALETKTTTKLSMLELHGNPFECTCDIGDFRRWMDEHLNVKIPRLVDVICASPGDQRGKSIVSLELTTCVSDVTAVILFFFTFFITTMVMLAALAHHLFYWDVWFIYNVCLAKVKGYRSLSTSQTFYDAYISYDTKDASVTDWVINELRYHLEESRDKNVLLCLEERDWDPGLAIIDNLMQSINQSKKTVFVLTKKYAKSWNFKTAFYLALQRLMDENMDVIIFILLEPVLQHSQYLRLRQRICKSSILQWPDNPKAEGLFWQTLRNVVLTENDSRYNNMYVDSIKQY
How it was run: (§1)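 Steps: seed receptor-specific HEK-Blue cells; add compound, 0.05 nM–50 μM; wait 30 min at room temperature; add final gardiquimod 7.5 μM, R848 15.9 μM or ODN2006 5 nM for TLR7, TLR8 or TLR9; incubate 22 h at 37 °C; detect NF-κB/AP-1-driven SEAP.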

human TLR7 = target: T2, human TLR7 (Homo sapiens, UniProt Q9NYK1); experiment: TLR7 inhibition reporter assay (HEK-Blue cells, secreted embryonic alkaline phosphatase reporter); conditions: HEK-Blue cells overexpressing human TLR7, stimulated with gardiquimod 7.5 μM; read-out: TLR 7 IC50
T2 construct: host or cells: HEK-Blue cells (HEK293-derived reporter line)
T2 sequence (Q9NYK1 27-1049): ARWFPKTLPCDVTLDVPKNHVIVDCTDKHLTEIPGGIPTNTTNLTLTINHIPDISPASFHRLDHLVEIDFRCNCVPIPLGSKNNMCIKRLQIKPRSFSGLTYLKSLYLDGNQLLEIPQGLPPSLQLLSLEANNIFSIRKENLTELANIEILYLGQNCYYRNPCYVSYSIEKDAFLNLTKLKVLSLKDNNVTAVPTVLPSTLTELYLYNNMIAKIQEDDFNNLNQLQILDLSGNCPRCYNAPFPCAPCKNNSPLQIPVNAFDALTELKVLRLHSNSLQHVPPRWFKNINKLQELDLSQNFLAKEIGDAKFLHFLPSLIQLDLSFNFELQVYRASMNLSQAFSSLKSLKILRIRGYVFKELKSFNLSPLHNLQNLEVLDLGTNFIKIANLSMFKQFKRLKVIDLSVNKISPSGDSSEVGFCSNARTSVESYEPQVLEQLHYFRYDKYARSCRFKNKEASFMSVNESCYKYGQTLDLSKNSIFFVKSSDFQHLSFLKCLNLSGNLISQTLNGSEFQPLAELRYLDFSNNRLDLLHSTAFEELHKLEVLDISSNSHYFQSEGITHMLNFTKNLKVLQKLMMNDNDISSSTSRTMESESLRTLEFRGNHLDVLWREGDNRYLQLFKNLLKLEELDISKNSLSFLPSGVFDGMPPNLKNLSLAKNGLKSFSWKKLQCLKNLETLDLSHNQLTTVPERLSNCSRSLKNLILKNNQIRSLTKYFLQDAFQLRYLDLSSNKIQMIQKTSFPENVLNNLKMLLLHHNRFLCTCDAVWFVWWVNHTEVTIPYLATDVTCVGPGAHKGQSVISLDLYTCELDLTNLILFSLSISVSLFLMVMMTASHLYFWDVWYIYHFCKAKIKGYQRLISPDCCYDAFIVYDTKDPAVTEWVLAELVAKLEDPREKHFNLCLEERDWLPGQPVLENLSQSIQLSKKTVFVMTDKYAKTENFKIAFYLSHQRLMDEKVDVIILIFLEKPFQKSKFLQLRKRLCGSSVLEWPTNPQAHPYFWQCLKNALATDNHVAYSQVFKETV
How it was run: as §1

human TLR9 = target: T3, human TLR9 (Homo sapiens, UniProt Q9NR96); experiment: TLR9 inhibition reporter assay (HEK-Blue cells, secreted embryonic alkaline phosphatase reporter)
T3 construct: host or cells: HEK-Blue cells (HEK293-derived reporter line)
T3 sequence (Q9NR96 26-1032): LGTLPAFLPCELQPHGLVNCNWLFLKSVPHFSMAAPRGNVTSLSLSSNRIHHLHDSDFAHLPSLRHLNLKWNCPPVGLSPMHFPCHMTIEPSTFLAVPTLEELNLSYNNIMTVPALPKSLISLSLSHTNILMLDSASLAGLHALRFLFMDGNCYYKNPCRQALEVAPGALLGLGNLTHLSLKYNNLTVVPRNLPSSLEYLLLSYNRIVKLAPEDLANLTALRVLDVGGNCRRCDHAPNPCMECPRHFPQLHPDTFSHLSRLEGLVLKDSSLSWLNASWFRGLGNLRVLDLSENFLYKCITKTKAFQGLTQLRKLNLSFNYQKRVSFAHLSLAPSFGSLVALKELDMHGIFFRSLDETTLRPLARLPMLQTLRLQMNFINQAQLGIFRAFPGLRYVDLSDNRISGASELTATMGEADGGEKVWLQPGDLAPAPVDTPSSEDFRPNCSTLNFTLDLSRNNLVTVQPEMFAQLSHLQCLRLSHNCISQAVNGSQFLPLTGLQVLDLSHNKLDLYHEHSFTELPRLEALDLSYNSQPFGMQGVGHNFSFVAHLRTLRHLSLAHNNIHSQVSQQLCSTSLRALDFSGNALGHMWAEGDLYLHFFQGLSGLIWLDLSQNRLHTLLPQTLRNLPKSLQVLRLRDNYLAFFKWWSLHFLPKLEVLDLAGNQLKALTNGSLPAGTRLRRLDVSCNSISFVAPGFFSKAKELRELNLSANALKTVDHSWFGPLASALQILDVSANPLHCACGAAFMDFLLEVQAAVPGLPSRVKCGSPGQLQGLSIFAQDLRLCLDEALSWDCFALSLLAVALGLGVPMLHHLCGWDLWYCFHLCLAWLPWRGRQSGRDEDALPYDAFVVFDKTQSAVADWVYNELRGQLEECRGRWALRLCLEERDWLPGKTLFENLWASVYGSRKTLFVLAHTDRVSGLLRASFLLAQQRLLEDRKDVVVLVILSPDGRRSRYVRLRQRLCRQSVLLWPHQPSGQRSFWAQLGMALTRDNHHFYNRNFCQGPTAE
How it was run: as §1

[1] = HEK-Blue cells overexpressing human TLR9, stimulated with ODN2006 5 nM, read-out: TLR 9 IC50
[2] = HEK-Blue human TLR9 reporter cells

Row | Compound | IC50 (human TLR8) | IC50 (human TLR7) | IC50 (human TLR9; [1]) | IC50 (human TLR9; [2])
1 | COCCN1CCCC(N2CCC(c3cc(F)c4nc(-c5ccc(S(C)(=O)=O)cc5)n(C)c4c3)CC2)CC1 (single isomer, unassigned) [Example 302, 4-fluoro-6-(1-(1-(2-methoxyethyl)azepan-4-yl)piperidin-4-yl)-1-methyl-2-(4-(methylsulfonyl)phenyl)-1H-benzo[d]imidazole] | > 50000 nM | 1900 nM | 48 nM | 48 nM
2 | COCCN1CCCC(N2CCC(c3cc(F)c4nc(-c5ccc(S(C)(=O)=O)cc5)n(C)c4c3)CC2)CC1 (single isomer, unassigned) [Example 303, 4-fluoro-6-(1-(1-(2-methoxyethyl)azepan-4-yl)piperidin-4-yl)-1-methyl-2-(4-(methylsulfonyl)phenyl)-1H-benzo[d]imidazole] | > 50000 nM | 4200 nM | 14 nM | 14 nM
3 | COCCN1CCCC(N2CCC(c3cc(C)c4nc(-c5ccc(S(C)(=O)=O)cc5)n(C)c4c3)CC2)CC1 (single isomer, unassigned) [Example 308, 6-(1-(1-(2-methoxyethyl)azepan-4-yl)piperidin-4-yl)-1,4-dimethyl-2-(4-(methylsulfonyl)phenyl)-1H-benzo[d]imidazole] | > 50000 nM | 2600 nM | 6.7 nM | 6.7 nM
4 | COCCN1CCCC(N2CCC(c3cc(C)c4nc(-c5ccc(S(C)(=O)=O)cc5)n(C)c4c3)CC2)CC1 (single isomer, unassigned) [Example 309, 6-(1-(1-(2-methoxyethyl)azepan-4-yl)piperidin-4-yl)-1,4-dimethyl-2-(4-(methylsulfonyl)phenyl)-1H-benzo[d]imidazole] | > 50000 nM | 1900 nM | 34 nM | 34 nM
5 | CC(C)CN1C2CCC1CC(N1CCC(c3cc(F)c4nc(-c5ccc(S(C)(=O)=O)cc5)n(C5CC5)c4c3)CC1)C2 (single isomer, unassigned) [Example 322, 1-cyclopropyl-4-fluoro-6-(1-(8-isobutyl-8-azabicyclo[3.2.1]octan-3-yl)piperidin-4-yl)-2-(4-(methylsulfonyl)phenyl)-1H-benzo[d]imidazole] | > 50000 nM | 1400 nM | 12 nM | 12 nM
6 | CC(C)CN1C2CCC1CC(N1CCC(c3cc(F)c4nc(-c5ccc(S(C)(=O)=O)cc5)n(C5CC5)c4c3)CC1)C2 (single isomer, unassigned) [Example 323, 1-cyclopropyl-4-fluoro-6-(1-(8-isobutyl-8-azabicyclo[3.2.1]octan-3-yl)piperidin-4-yl)-2-(4-(methylsulfonyl)phenyl)-1H-benzo[d]imidazole] | > 50000 nM | 2100 nM | 60 nM | 60 nM

Second part, the compound after the results:

Row | IC50 (human TLR8) | IC50 (human TLR7) | IC50 (human TLR9; [1]) | IC50 (human TLR9; [2]) | Compound
7 | > 50000 nM | 2100 nM | 3.3 nM | 3.3 nM | Cn1c(-c2ccc(S(C)(=O)=O)cc2)nc2c(F)cc(C3CCN(C4CCCN(CC5CC5)CC4)CC3)cc21 (single isomer, unassigned) [Example 299, 6-(1-(1-(cyclopropylmethyl)azepan-4-yl)piperidin-4-yl)-4-fluoro-1-methyl-2-(4-(methylsulfonyl)phenyl)-1H-benzo[d]imidazole]
8 | > 50000 nM | 9500 nM | 17 nM | 17 nM | Cc1cc(C2CCN(C3CCCN(C4CCOCC4)CC3)CC2)cc2c1nc(-c1ccc(S(C)(=O)=O)cc1)n2C (single isomer, unassigned) [Example 306, 1,4-dimethyl-2-(4-(methylsulfonyl)phenyl)-6-(1-(1-(tetrahydro-2H-pyran-4-yl)azepan-4-yl)piperidin-4-yl)-1H-benzo[d]imidazole]
9 | > 50000 nM | 20500 nM | 3.5 nM | 3.5 nM | Cc1cc(C2CCN(C3CCCN(C4CCOCC4)CC3)CC2)cc2c1nc(-c1ccc(S(C)(=O)=O)cc1)n2C (single isomer, unassigned) [Example 307, 1,4-dimethyl-2-(4-(methylsulfonyl)phenyl)-6-(1-(1-(tetrahydro-2H-pyran-4-yl)azepan-4-yl)piperidin-4-yl)-1H-benzo[d]imidazole]
10 | > 50000 nM | 1500 nM | 42 nM | 42 nM | CS(=O)(=O)c1ccc(-c2nc3c(F)cc(C4CCN(C5CC6CCC(C5)N6CC5CC5)CC4)cc3n2C2CC2)cc1 (single isomer, unassigned) [Example 324, 1-cyclopropyl-6-(1-(8-(cyclopropylmethyl)-8-azabicyclo[3.2.1]octan-3-yl)piperidin-4-yl)-4-fluoro-2-(4-(methylsulfonyl)phenyl)-1H-benzo[d]imidazole]
